The values below come from patent publication US5393875A, “Amino acid derivatives having renin inhibiting activity” (Hoffmann-La Roche Inc., priority 1991, dated 1995).

The target in test [1] is T1, human renin (Homo sapiens, UniProt P00797).
T1 sequence (P00797 67-406): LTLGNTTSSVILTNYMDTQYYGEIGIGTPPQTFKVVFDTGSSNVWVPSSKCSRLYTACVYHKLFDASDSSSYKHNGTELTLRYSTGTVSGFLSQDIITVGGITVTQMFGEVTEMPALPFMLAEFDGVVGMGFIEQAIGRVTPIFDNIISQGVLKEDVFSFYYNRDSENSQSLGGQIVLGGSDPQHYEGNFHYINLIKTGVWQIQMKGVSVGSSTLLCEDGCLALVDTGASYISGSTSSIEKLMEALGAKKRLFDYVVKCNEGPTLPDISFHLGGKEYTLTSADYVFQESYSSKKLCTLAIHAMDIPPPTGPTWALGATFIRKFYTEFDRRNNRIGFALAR
The test can be described thus: Test A: in vitro test with pure human renin. It is filed as biochemical. As to conditions: human tetradecapeptide substrate, pH 7.4, 3 hours at 37° C., angiotensin I by RIA. The procedure: A. In vitro test with pure human renin
The test is carried out in Eppendorf test tubes. The incubation mixture consists of (1) 100 μl of human renin in buffer A (0.1M sodium phosphate solution, pH 7.4, containing 0.1% bovine serum albumin, 0.1% sodium azide and 1 mM ethylenediaminetetraacetic acid), sufficient for a renin activity of 2-3 ng of angiotensin I/ml/hr; (2) 145 μl of buffer A: (3) 30 μl of 10 μM human tetradecapeptide renin substrate (hTD) in 10 mM hydrochloric acid: (4) 15 μl of dimethyl sulphoxide with or without inhibitor and (5) 10 μl of a 0.03 molar solution of hydroxyquinoline sulphate in water.
The samples are incubated for three hours at 37° C. and, respectively, 4° C. in triplicate. 2×100 μl samples per experimental test tube are used in order to measure the production of angiotensin I via RIA (standard radioimmunoassay; clinical assay solid phase kit). Cross reactivities of the antibody used in the RIA are: angiotensin I 100%; angiotensin II 0.0013%; hTD (angiotensin I-Val-Ile-His-Ser-OH 0.09%. The production of angiotensin I is determined by the difference between the experiment at 37° C. and that at 4° C.
(§1) The following controls are carried out:
(a) Incubation of hTD samples without renin and without inhibitor at 37° C. and 4° C. The difference between these two values gives the base value of the angiotensin I production.
(b) Incubation of hTD samples with renin, but without inhibitor at 37° C. and 4° C. The difference between these values gives the maximal value of angiotensin I production.
In each sample the base value of the angiotensin I production is subtracted from the angiotensin I production which is determined. The difference between the maximal value and the base value gives the value of the maximal substrate hydrolysis (=100% ) by renin.
The results are given as IC50 values which denote that concentration of the inhibitor at which the enzymatic activity is inhibited by 50%. The IC50 values are determined from a linear regression curve from a logit-log plot.

For test [2], the target named is T2, renin in human plasma (Homo sapiens, UniProt P00797).
T2 construct: The test solution comprises (1) 225 μl of plasma; from tissue; host or cells: human plasma
T2 sequence (P00797 67-406): T1 sequence (P00797 67-406)
Nature of the test: Test B: in vitro test with human plasma. It is filed as biochemical. As to conditions: pH 6, 3 hours at 37° C., angiotensin I by RIA. The procedure:
B. In vitro test with human plasma
The test solution comprises (1) 225 μl of plasma, (2) 10 μl of 8-hydroxyquinoline sulphate in water, (3) 12 μl of sodium phosphate buffer (0.1M), pH 7.4, and […] of different concentrations of renin inhibitor in dimethyl sulphoxide. Tho resulting pH value (pH 6) of tho test solution is stable for the duration of the subsequent incubation. The test tubes are then incubated at 37° C. for 3 hours. The enzyme activity is expressed by determining the angiotensin I produced, which is determined using a comercially available radioimmunoassay kit (Clinical Assays, Cambridge, Mass.).
as §1
MaxP: Maximal production (maximal enzyme activity) in the absence of a renin inhibitor.
MinP: Minimal production (enzyme activity blank) in the presence of a supramaximal concentration of a renin inhibitor.
The MinP is subtracted from the respective angiotensin production in each experiment. These values are converted into percentage inhibition by comparison with the maximal enzyme activity MaxP-MinP. The degree of inhibition is expressed by the IC50 value, i.e. the concentration of inhibitor which reduces the accumulation of angiotensin I by 50%.

As to `COC(=O)[C@H](NC(=O)OC(C)(C)C)C(C)(C)S(=O)(=O)CC(Cc1ccccc1)C(=O)N[C@@H](Cc1c[nH]cn1)C(=O)N[C@@H](CC1CCCCC1)[C@@H](O)[C@@H](O)C1CC1` (single isomer, unassigned) [C, tert-Butyl [(S)-2-[[(S or R)-2-[[(S)-1-[[(1S,2R,3S)-1-(cyclohexylmethyl)-3-cyclopropyl-2,3-dihydroxypropyl]carbamoyl]-2-imidazol-4-ylethyl]carbamoyl]-3-phenylpropyl]sulfonyl]-1-(methoxycarbonyl)-2-methylpropyl]carbamate], the results for the IC50 in test [1] and in test [2] were 61 pM and 140 pM, respectively.
For `COCC(=O)OCC(C)(C)S(=O)(=O)CC(Cc1ccccc1)C(=O)N[C@@H](Cc1c[nH]cn1)C(=O)N[C@@H](CC1CCCCC1)[C@@H](O)[C@@H](O)C1CC1` (single isomer, unassigned) [D, 2-[[(S or R)-2-[[(S)-1-[[(1S,2R,3S)-1-(cyclohexylmethyl)-3-cyclopropyl-2,3-dihydroxypropyl]carbamoyl]-2-imidazol-4-ylethyl]carbamoyl]-3-phenylpropyl]sulfonyl]-2-methylpropyl methoxyacetate] the same measures were 200 pM and less than 100 pM.
For `CC(C)(C(=O)N1CCOCC1)S(=O)(=O)C[C@@H](Cc1ccccc1)C(=O)N[C@@H](Cc1c[nH]cn1)C(=O)N[C@@H](CC1CCCCC1)[C@@H](O)[C@@H](O)C1CC1` [A, (S)-N-[(1S,2R,3S)-1-(Cyclohexylmethyl)-3-cyclopropyl-2,3-dihydroxypropyl]-α-[(S)-α-[[[1-(morpholinocarbonyl)-1-methylethyl]sulfonyl]methyl]hydrocinnamamido]imadazole-4-propionamide] the same measures were 30 pM and 100 pM.
For `CC(C)(C(=O)N[C@H]1C(O)O[C@H](CO)[C@@H](O)[C@@H]1O)S(=O)(=O)C[C@@H](Cc1ccccc1)C(=O)N[C@@H](Cc1c[nH]cn1)C(=O)N[C@@H](CC1CCCCC1)[C@@H](O)[C@@H](O)C1CC1` (stereo partly drawn) [B, 2-[2-[[(S)-2-[[(S)-1-[[(1S,2R,3S)-1-(Cyclohexylmethyl)-3-cyclopropyl-2,3-dihydroxypropyl]carbamoyl]-2-imidazol-4-ylethyl]carbamoyl]-3-phenylpropyl]sulfonyl]-2-methylpropionamido]-2-deoxy-D-glucopyranose] the same measures were 300 pM and 110 pM.

A word on the IC50: it is the point on the concentration scale where inhibition reaches its midpoint.
